{"source": "paper PMC8041276", "about": "(ACS Chemical Neuroscience, 2021)", "key": {"cognitive flexibility": {"system": "cognitive flexibility", "assay": "Attentional set-shifting task (ASST)", "format": "in vivo, male Sprague-Dawley rats", "conditions": "rats", "procedure": "The experiments were conducted in accordance with the NIH Guide for the Care and Use of Laboratory Animals and were approved by the II Local Ethics Committee for Animal Experiments, Maj Institute of Pharmacology. Male […] Sprague-Dawley rats (Charles River, Germany) weighing ∼250 g at the arrival were housed in the standard laboratory cages, under standard colony A/C controlled conditions: room temperature 21 ± 2 °C, humidity (40–50%), 12 h light/dark cycle (lights on, 06:00) with ad libitum access to food (unless stated otherwise) and water. Rats were allowed to acclimatize for at least 7 days before the start of the experimental procedure. During this week animals were handled at least 3 times. Behavioral testing was carried out during the light phase of the light/dark cycle. At least 1 h before the start of the experiment, rats were transferred to the experimental room for acclimation.\nThirty-two male Sprague-Dawley rats were group housed with a mild food restriction (17 g of food pellets per day) for at least 1 week prior to training.\nTesting was conducted in a Plexiglas apparatus (length × width × height: 38 cm × 38 cm × 17 cm) with the grid floor and wall dividing half of the length of the cage into two sections. During testing, one ceramic digging pot (internal diameter of 10.5 cm and a depth of 4 cm) was placed in each section. Each pot was defined by a pair of cues along with two stimulus dimensions. To mark each pot with a distinct odor, 5 μL of a flavoring essence (Dr Oetker, Poland, or The Body Shop, U.K.) was applied to a piece of blotting paper fixed to the external rim of the pot immediately prior to use. A different pot was used for each combination of digging medium and odor; only one odor was ever applied to a given pot. The bait (one-half of a Honey Nut Cheerios, Nestle) was placed at the bottom of the “positive” pot and buried in the digging medium. A small amount of powdered Cheerios was added to the digging media to prevent the rat from trying to detect the buried reward by its smell. […]\nDay 3, Testing. […] An incorrect choice was recorded as an error. […]"}, "[1]": {"biological_target": "T1, serotonin 5-HT2C receptor (Homo sapiens, UniProt P28335)", "T1 construct": "Eurofins Cerep (contract assay)", "T1 sequence (P28335 33-458)": "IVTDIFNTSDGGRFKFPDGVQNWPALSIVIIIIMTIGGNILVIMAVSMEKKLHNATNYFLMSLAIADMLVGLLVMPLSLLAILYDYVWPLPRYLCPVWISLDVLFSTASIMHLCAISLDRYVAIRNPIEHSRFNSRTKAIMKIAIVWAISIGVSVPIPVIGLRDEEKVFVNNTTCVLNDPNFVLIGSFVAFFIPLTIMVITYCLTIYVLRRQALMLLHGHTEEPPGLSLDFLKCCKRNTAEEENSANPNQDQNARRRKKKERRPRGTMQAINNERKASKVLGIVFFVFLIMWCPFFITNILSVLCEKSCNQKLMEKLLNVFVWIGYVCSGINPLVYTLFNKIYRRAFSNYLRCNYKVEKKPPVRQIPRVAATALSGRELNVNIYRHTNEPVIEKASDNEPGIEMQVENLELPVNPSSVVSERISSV", "assay": "Eurofins Cerep off-target binding, % inhibition at 1 μM", "procedure": "(§1) Additionally, the affinity of compound 27 at the adrenergic α1A, muscarinic M1, histaminergic H1, dopaminergic D3, serotoninergic 5-HT2C, 5-HT3 receptors, serotonin transporter (SERT), and the human ether-a-go-go-related gene (hERG) channel were evaluated in Eurofins Cerep."}, "D3 dopamine receptor": {"biological_target": "T2, D3 dopamine receptor (Homo sapiens, UniProt P35462)", "T2 construct": "Eurofins Cerep (contract assay)", "T2 sequence (P35462 whole entry)": "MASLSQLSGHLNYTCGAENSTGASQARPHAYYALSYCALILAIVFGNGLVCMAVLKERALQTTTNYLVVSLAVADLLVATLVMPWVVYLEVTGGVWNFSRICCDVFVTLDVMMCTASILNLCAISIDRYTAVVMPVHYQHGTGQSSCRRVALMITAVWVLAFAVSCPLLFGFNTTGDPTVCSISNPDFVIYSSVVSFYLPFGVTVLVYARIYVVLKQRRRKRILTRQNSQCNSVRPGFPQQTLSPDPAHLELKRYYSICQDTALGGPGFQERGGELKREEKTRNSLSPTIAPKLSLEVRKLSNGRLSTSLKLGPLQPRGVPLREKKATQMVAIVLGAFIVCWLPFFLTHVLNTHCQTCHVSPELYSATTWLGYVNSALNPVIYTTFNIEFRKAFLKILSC", "assay": "Eurofins Cerep off-target binding, % inhibition at 1 μM", "procedure": "as §1"}, "M1 muscarinic receptor": {"biological_target": "T3, M1 muscarinic receptor (Homo sapiens, UniProt P11229)", "T3 construct": "Eurofins Cerep (contract assay)", "T3 sequence (P11229 1-460)": "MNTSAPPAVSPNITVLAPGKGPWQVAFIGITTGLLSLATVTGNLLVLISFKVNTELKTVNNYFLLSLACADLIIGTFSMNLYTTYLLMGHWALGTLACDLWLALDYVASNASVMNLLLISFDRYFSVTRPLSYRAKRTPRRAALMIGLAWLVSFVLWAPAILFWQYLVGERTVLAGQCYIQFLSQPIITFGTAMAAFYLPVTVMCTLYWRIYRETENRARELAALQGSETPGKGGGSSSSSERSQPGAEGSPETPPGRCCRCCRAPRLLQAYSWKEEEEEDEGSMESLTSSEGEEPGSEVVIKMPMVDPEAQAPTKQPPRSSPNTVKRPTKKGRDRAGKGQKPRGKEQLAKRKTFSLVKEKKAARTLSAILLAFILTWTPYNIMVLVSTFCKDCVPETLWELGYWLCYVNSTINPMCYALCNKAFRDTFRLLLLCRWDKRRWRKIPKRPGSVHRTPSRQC", "assay": "Eurofins Cerep off-target binding, % inhibition at 1 μM", "procedure": "as §1"}, "[2]": {"biological_target": "T4, serotonin transporter (SERT) (Homo sapiens, UniProt P31645)", "T4 construct": "Eurofins Cerep (contract assay)", "T4 sequence (P31645 whole entry, species assumed)": "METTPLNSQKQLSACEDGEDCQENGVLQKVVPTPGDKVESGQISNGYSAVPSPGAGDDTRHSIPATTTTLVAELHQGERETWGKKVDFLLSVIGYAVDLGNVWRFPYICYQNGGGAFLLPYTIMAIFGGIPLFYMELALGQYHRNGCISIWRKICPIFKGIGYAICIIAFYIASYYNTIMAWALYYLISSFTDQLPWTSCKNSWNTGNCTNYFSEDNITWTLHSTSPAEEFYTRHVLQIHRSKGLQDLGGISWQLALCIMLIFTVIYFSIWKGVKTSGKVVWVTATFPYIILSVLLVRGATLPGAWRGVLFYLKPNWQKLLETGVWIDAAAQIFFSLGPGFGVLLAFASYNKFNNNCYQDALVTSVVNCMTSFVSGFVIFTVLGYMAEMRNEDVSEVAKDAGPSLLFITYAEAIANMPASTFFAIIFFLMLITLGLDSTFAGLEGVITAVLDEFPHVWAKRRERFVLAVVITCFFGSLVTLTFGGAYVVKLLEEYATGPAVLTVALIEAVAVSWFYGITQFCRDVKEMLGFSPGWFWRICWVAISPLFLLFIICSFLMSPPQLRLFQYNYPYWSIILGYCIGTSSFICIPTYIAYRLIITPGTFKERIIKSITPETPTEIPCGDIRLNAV", "assay": "Eurofins Cerep off-target binding, % inhibition at 1 μM", "procedure": "as §1"}}, "data": [{"smiles": "O=C(N[C@@H]1CCNC1)c1ccn(S(=O)(=O)c2cccc(Cl)c2)c1-c1ccc(F)cc1", "note": "[Compound 27, (R)-2-(4-Fluorophenyl)-1-[(3-chlorophenyl)sulfonyl]-N-(pyrrolidin-3-yl)-1H-pyrrole-3-carboxamide]", "values": [{"measurement": "cognitive flexibility (trials to criterion)", "setting": "cognitive flexibility; 6 mg/kg p.o.", "value": "effective only during the Rev2 phase"}, {"measurement": "cognitive flexibility (trials to criterion)", "setting": "cognitive flexibility; 9 mg/kg p.o., ED, Rev1, Rev2, Rev3 stages", "value": "enhanced cognitive flexibility"}, {"measurement": "mean time to complete the trial", "setting": "cognitive flexibility; 6 and 9 mg/kg p.o., all discrimination stages", "value": "did not affect the mean time to complete the trial"}, {"measurement": "inhibition at 1 µM", "setting": "[1]", "value": 10, "unit": "%"}, {"measurement": "inhibition at 1 µM", "setting": "D3 dopamine receptor", "value": 17, "unit": "%"}, {"measurement": "inhibition at 1 µM", "setting": "M1 muscarinic receptor", "value": 0, "unit": "%"}, {"measurement": "inhibition at 1 µM", "setting": "[2]", "value": 10, "unit": "%"}]}]}
